Patent publication EP0400686A1, “2-Amino-9-[1,3bis-(isopropoxy)-propyl-2-oxymethyl]-purine, its utilization and medicaments containing it” (HOECHST AKTIENGESELLSCHAFT, priority 1985, dated 1987)

Test system: Herpes simplex Typ 1
Assay: In vivo test: NMRI mice infected intraperitoneally with Herpes simplex type 1, treated i.p. twice daily for 5 days, survival rate
Details: Herpes simplex Typ 1 an der NMRI-Maus
Excerpt: NMRI-Mäuse, spezifisch pathogenfrei, im Gewicht von etwa 15 g wurden intraperitoneal mit Herpes simplex Typ 1 infiziert und anschließend mit den beschriebenen Verbindungen intraperitoneal therapiert. Als Vergleich diente stets Acyclovir (ACV). Die Behandlung erfolgte zweimal täglich über 5 Tage, beginnend nach der Infektion. Der Behandlungserfolg wurde anhand des Krankheitsverlaufes und der Überlebensrate gegenüber den unbehandelten Infektionskontrollen bestimmt. Letztere erhielten anstelle der zu prüfenden Verbindungen eine wasserlösliche Methylhydroxyäthylcellulose (Viskosität […] in 2 %iger Lösung) (^(R)Tylose MH 300 P) appliziert.
Die chemaotherapeutische Wirkung erfindungsgemäßer Verbindungen ist aus Tabelle 1 ersichtlich.

[1] = Dosierung 10 x 0,2 mg/Maus i.p.
[2] = Dosierung 10 x 0,6 mg/Maus i.p.

Row | SMILES | Mittlere Überlebensrate x/10 [1] | Mittlere Überlebensrate x/10 [2]
1 | CC(=O)OCC(CN=[N+]=[N-])OCn1cnc2c(=O)[nH]c(N)nc21 (racemic) [Verbindung 9, 9-(1-Azidomethyl-2-acetoxyäthoxymethyl)-guanin] | 9/10 | 9/10
2 | CC(=O)OCC(COC(C)C)OCn1cnc2c(=O)[nH]c(N)nc21 (racemic) [Verbindung 20, 9-(1-Isopropoxymethyl-2-acetoxyäthoxymethyl)-guanin] | 10/10 | 10/10
